According to PMC7179901, “The aerobic respiratory chain of Pseudomonas aeruginosa cultured in artificial urine media: Role of NQR and terminal oxidases” (PLoS ONE, 2020):
pKi: −log10 of the molar value.

What was measured:
[1] = molecular target: T1, purified P. aeruginosa NQR (Pa-NQR) (Pseudomonas aeruginosa, UniProt Q9HZL1); experiment: ubiquinone reductase activity at […] nm; format: biochemical; details: 50 μM ubiquinone-1, KHE buffer pH 7.5
T1 construct: gene nqrF; […]; DDM-solubilized, Ni-NTA (tag not described) and DEAE purified; six-subunit complex; with Na(+)-translocating NADH-quinone reductase subunit A; Na(+)-translocating NADH-quinone reductase subunit B; Na(+)-translocating NADH-quinone reductase subunit C; Na(+)-translocating NADH-quinone reductase subunit D; Na(+)-translocating NADH-quinone reductase subunit E

[2] = molecular target: T2, NQR (Pseudomonas aeruginosa, UniProt Q9HZK7+Q9HZK9); experiment: HQNO titration of NADH-dependent oxygen consumption in isolated membranes; format: biochemical
T2 construct: gene nqrB; native NQR complex in LB and mAUM membranes; with six-subunit complex NqrA-F
T2 sequence (Q9HZK9 whole entry): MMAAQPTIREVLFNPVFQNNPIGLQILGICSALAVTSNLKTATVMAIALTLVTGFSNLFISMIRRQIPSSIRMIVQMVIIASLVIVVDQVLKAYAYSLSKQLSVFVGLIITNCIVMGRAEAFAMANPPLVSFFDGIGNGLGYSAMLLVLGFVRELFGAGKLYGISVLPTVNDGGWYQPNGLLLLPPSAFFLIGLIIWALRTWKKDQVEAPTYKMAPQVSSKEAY
T2 sequence (Q9HZL1 whole entry, further chain): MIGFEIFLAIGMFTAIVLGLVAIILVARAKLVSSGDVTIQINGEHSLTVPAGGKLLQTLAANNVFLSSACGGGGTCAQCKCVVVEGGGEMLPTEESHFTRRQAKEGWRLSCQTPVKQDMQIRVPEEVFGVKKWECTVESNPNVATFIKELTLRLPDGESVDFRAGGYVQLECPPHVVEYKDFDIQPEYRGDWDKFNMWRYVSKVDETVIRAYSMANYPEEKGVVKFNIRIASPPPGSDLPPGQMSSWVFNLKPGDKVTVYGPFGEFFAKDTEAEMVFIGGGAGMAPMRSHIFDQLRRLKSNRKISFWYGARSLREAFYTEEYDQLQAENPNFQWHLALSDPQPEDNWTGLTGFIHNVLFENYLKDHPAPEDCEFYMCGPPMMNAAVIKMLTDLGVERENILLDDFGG
T2 sequence (Q9HZK7 whole entry): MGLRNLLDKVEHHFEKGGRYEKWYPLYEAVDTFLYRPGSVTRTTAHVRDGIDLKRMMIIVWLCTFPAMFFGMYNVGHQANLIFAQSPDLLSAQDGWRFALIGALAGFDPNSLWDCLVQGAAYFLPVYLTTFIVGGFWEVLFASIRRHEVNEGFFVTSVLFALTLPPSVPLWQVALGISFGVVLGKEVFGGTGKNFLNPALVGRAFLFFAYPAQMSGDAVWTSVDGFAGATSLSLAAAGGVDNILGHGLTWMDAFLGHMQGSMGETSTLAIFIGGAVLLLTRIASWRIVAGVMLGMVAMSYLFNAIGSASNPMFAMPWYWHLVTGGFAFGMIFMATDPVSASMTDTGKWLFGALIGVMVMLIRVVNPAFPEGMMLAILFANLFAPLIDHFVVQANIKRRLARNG
T2 sequence (Q9HZK6 whole entry, further chain): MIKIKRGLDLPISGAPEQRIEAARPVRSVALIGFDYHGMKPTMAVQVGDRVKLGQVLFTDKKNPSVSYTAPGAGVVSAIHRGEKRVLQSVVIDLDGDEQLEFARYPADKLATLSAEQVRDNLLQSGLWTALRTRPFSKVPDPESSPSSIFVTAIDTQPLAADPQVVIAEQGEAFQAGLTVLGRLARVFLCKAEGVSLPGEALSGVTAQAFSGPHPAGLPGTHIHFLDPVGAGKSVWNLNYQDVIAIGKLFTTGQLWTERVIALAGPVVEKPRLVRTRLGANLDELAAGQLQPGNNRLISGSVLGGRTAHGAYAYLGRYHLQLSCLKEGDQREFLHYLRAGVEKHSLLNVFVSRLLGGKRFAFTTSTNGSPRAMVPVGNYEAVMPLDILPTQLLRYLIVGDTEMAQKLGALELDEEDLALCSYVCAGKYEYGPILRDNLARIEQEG
T2 sequence (Q9HZL0 whole entry, further chain): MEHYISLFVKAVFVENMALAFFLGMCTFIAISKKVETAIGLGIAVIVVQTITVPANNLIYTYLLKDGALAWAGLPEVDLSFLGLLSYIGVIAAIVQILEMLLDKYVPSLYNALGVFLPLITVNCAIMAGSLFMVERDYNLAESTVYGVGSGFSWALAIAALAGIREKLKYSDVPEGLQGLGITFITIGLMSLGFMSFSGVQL
T2 sequence (Q9HZK8 whole entry, further chain): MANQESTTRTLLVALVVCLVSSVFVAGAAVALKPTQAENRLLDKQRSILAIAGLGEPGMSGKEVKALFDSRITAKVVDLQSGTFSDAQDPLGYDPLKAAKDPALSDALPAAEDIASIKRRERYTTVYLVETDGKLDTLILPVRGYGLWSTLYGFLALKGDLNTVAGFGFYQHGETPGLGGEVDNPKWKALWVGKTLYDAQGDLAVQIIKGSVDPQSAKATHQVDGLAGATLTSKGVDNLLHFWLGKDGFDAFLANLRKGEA

T1 sequence (Q9HZL1 whole entry): as the sequence (Q9HZL1 whole entry, further chain) above
T1 sequence (Q9HZK6 whole entry partner): as the sequence (Q9HZK6 whole entry, further chain) above
T1 sequence (Q9HZK7 whole entry partner): as the sequence (Q9HZK7 whole entry) above
T1 sequence (Q9HZK8 whole entry partner): as the sequence (Q9HZK8 whole entry, further chain) above
T1 sequence (Q9HZK9 whole entry partner): as the sequence (Q9HZK9 whole entry) above
T1 sequence (Q9HZL0 whole entry partner): as the sequence (Q9HZL0 whole entry, further chain) above

NC(=O)C1=CN([C@@H]2O[C@H](COP(=O)(O)OP(=O)(O)OC[C@H]3O[C@@H](n4cnc5c(N)ncnc54)[C@H](O)[C@@H]3O)[C@@H](O)[C@H]2O)C=CC1 [NADH]
ubiquinone reductase activity at 282 nm ([1]; 250 μM NADH): purified P. aeruginosa NQR (F) using as substrates NADH (black) or deamino NADH

NC(=O)C1=CN([C@@H]2O[C@H](COP(=O)(O)OP(=O)(O)OC[C@H]3O[C@@H](n4cnc5c(=O)[nH]cnc54)[C@H](O)[C@@H]3O)[C@@H](O)[C@H]2O)C=CC1 [deamino NADH]
ubiquinone reductase activity at 282 nm ([1]; 250 μM deamino NADH): purified P. aeruginosa NQR (F) using as substrates NADH (black) or deamino NADH

CCCCCCCc1cc(O)c2ccccc2[n+]1[O-] [HQNO]
pKi [2]: 5.70
